Data taken from EP0363275A1, “Low molecular weight vectors specific for sugar receptors, their conjugates and processes for their preparation” (IRE-CELLTARG S.A., priority 1988, dated 1990).
Where “and” joins values, the source holds several entries; their conditions need not be identical. Equal values may be shown once. Entries after “also recorded” stand apart in the source; their conditions may differ.

Tests used:
malaria murine = experiment: Therapeutic activity of amino-acid derivatives of primaquine in the murine malaria model; type: in vivo
[1] = molecular target: T1, récepteur à asialoglycoprotéine des hépatocytes (Rattus norvegicus, UniProt P02706+P08290); experiment: Competition with ¹²⁵I HSA gal for binding to cultured hepatocytes at 4°C; settings: for affinité pour le récepteur: cultured rat hepatocytes
T1 construct: le récepteur à galactoses présent à la membrane sinusoïdale des hépatocytes; endogenous in cells; host or cells: primary rat hepatocytes, isolated and cultured 16 h
T1 sequence (P02706 1-284): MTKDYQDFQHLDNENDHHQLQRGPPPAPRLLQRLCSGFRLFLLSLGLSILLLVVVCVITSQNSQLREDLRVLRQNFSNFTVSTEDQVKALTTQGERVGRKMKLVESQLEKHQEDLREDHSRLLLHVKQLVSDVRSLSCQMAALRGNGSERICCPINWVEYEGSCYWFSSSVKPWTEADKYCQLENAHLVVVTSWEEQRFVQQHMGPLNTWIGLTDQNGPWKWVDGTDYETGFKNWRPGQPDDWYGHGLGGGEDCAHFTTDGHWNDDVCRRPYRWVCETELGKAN
T1 sequence (P08290 1-301): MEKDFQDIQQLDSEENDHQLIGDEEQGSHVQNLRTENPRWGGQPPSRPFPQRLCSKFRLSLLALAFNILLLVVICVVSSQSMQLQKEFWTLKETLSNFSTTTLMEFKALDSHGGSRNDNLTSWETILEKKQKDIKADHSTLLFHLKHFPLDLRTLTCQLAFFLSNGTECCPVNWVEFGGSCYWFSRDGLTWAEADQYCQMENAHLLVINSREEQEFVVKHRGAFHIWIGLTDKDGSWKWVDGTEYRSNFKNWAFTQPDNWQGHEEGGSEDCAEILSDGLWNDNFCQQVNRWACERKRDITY
Experimental: D'autres caractéristiques et avantages de la présente invention apparaîtront à la lumière des exemples qui vont suivre. • - La figure 1 : Expériences de compétition entre l'HSA gal marqué à l'iode-125 et différentes concentrations molaires en HSA gal non radioactives (●) ou en composés glycosylés (mono O bi □ triantenne ▲ ) non radioactifs. Les cellules mises en culture depuis 16 h. sont incubées à 4°C pendant 4 h. en présence de 1 ml de milieu contenant 50 ng d'¹²⁵I HSA gal et les différentes concentrations en produits non radioactifs. Après l'incubation, les cellules sont lavées et la radioactivité qui leur est associée, mesurée. Les résultats sont exprimés en pourcentage d'¹²⁵I HSA gal qui reste associé aux cellules en fonction du logarithme de la concentration molaire en compétiteur. • - La figure 2 : Expériences de compétiton entre l'HSA gal marqué à l'iode-125 et différentes concentrations molaires en galactoses d'HSA gal ou de composés glycosylés (mono O bi □ et triantenne ▲ )non radioactifs. Les cellules sont traitées comme décrit dans la figure 1 et les résultats sont exprimés en pourcentage d'[…] HSA gal qui reste associé aux cellules en fonction du logarithme de la concentration molaire en galactose du compétiteur. • - La figure 3 : Distribution tissulaire de la triantenne marquée au tritium. Différentes concentrations en triantenne ³H sont administrées par voie intraveineuse à des souris OF₁. Trois minutes après l'injection, les animaux sont sacrifiés. Le sang et les différentes organes sont prélevés, homogénéisés et la radioactivité qui leur est associée, mesurée. Les résultats sont exprimés en pourcentage de la dose totale injectée et représentent la moyenne + déviation standard de 3 expériences. • - La figure 4 : Distribution tissulaire de la triantenne marquée au tritium. Des souris ont reçu par voie i.v. différentes concentrations de triantenne ³H. Les animaux sont sacrifiés 3 min. après l'injection. Le sang et les différents organes sont prélevés, homogénéisés et la radioactivité qui leur est associée, mesurée. Les résultats sont présentés en pourcentage de la dose injectée par gr. de tissu et représentent la moyenne + déviation standard de 3 expériences. • - La figure 5 : Capture hépatique de la triantenne marquée au tritium. Différentes concentrations en triantenne ³H sont injectées par voie i.v. à des souris OF₁. La radioactivité associée au foie est mesurée 3 min. après l'injection. Les valeurs sont exprimées en ng de galactose associés au foie en fonction des ng de galactoses injectés. • - La figure 6 : Distribution tissulaire de la triantenne marquée au tritium (a.) ou au technetium (b.). Une concentration de 100 µg en galactoses de triantenne radioactive est injectée par voie i.v. à des souris OF₁. Les animaux sont sacrifiés 3 min. après l'injection. Le sang et les différents organes sont prélevés, homogénéisés et la radioactivité qui leur est associée, mesurée. Les résultats sont exprimés en pourcentage de la dose totale administrée (case supérieure) ou en pourcentage de la dose totale injectée par gr. de tissu (case inférieure). Ils représentent la moyenne + déviation standard de 3 expériences.
L'étude in vitro des vecteurs hépatotropes de faible poids moléculaire a été effectuée sur des hépatocytes de rats isolés et mis en culture.
L'affinité relative a été déterminée par une expérience de compétition entre le vecteur et une néoglycoprotéine connue pour sa haute affinité pour les récepteurs à galactoses, soit l'albumine humaine
Afin de déterminer si les hépathocytes fixent spécifiquement les différents dérivés glycosylés (monoantenne = 3 galactoses terminaux; biantenne = 6 galactoses terminaux; triantenne = 9 galactoses terminaux), des expériences de compétition pour le récepteur à asialoglycoprotéines entre l'HSA gal et les différents composés ont été réalisées. […]

hépatocytes = experiment: Uptake (internalisation) by hepatocytes at 37°C; type: cell-based, rat; settings: short periods (120 min)
Experimental: A 37°C, les récepteurs intériorisent efficacement la triantenne. Par comparaison avec la capture de la macromolécule, ASH gal, les hépatocytes incubés pendant de courtes périodes (120 min), intériorisent jusqu'à 4 fois plus de molécules de triantenne.
Ce fait pourrait s'expliquer par la formation préférentielle de complexes ligand-récepteur à vitesse de dissociation lente, dans le cas de la triantenne.

[2] = set-up: species or system souris OF₁; settings: in vivo, iv
Experimental: D'autres caractéristiques et avantages de la présente invention apparaîtront à la lumière des exemples qui vont suivre. • - La figure 1 : Expériences de compétition entre l'HSA gal marqué à l'iode-125 et différentes concentrations molaires en HSA gal non radioactives (●) ou en composés glycosylés (mono O bi □ triantenne ▲ ) non radioactifs. Les cellules mises en culture depuis 16 h. sont incubées à 4°C pendant 4 h. en présence de 1 ml de milieu contenant 50 ng d'¹²⁵I HSA gal et les différentes concentrations en produits non radioactifs. Après l'incubation, les cellules sont lavées et la radioactivité qui leur est associée, mesurée. Les résultats sont exprimés en pourcentage d'¹²⁵I HSA gal qui reste associé aux cellules en fonction du logarithme de la concentration molaire en compétiteur. • - La figure 2 : Expériences de compétiton entre l'HSA gal marqué à l'iode-125 et différentes concentrations molaires en galactoses d'HSA gal ou de composés glycosylés (mono O bi □ et triantenne ▲ )non radioactifs. Les cellules sont traitées comme décrit dans la figure 1 et les résultats sont exprimés en pourcentage d'[…] HSA gal qui reste associé aux cellules en fonction du logarithme de la concentration molaire en galactose du compétiteur. • - La figure 3 : Distribution tissulaire de la triantenne marquée au tritium. […]

récepteur d'Ashwell = molecular target: T2, récepteur d'Ashwell (Rattus norvegicus, UniProt P02706+P08290); experiment: Binding sites and Kd of triantenne on hepatocytes; settings: number of sites
T2 construct: endogenous in cells
T2 sequence (P02706 1-284): T1 sequence (P02706 1-284)
T2 sequence (P08290 1-301): T1 sequence (P08290 1-301)

[3] = Blood disappearance and tissue distribution after i.v. administration (Example 7); type: in vivo, souris
Text: In vivo, on a étudié la disparition sanguine ainsi que la distribution tissulaire de la triantenne suite à son administration intra-veineuse à des souris.

[4] = among amino-acid derivatives of primaquine
[5] = result in words, hepatocytes, 4°C

COc1cc(NC(C)CCCNC(=O)[C@@H](N)CCC(=O)O)c2ncccc2c1 (stereo partly drawn) [L-glutamyl-Pq]
index thérapeutique (malaria murine; [4]): meilleur index thérapeutique

COc1cc(NC(C)CCCNC(=O)C(N)CCCCN)c2ncccc2c1 [L-lysyl-Pq]
activité (malaria murine; [4]): meilleure activité | toxicité (malaria murine; compared with primaquine): toxicité plus élevée que celle de la primaquine

Cbz-Asp bis(-6-amino Hex-Tris tri Gal) [Biantenne]
affinité pour le récepteur ([1]; result in words): affinité importante | compétition avec l'HSA gal iodiné pour le récepteur à asialoglycoprotéine [1, 5]: induit une diminution de la radioactivité associée aux cellules; also recorded: entre effectivement en compétition

Cbz-Asp-(6-amino Hex-Tris tri Gal) [Monoantenne]
B=Ic50 (molaire en gal.) ([1]; molar concentration in galactoses of the competitor inhibiting 50 % of ¹²⁵I HSA gal binding, hepatocytes, 4°C, 4 h): non déterminable | A=Ic 50 (molaire) ([1]; molar concentration of competitor inhibiting 50 % of ¹²⁵I HSA gal binding, hepatocytes, 4°C, 4 h): non déterminable | affinité pour le récepteur ([1]; result in words): ne présentent d'affinité significative | compétition avec l'HSA gal iodiné pour le récepteur à asialoglycoprotéine [1, 5]: n'entre pas en compétition; also recorded: se fixe aspécifiquement sur les cellules

Cbz-Asp-Asp-tri(-6-amino Hex-Tris tri Gal) [Triantenne]
molécules intériorisées par rapport à l'ASH gal (hépatocytes): ≤ 4 fois | affinité par rapport à celle de la biantenne ([1]; ratio triantenne / biantenne): ~100 fois and 60 fois | affinité exprimée en concentration molaire en galactoses, par rapport à l'HSA gal ([1]; result in words): du même ordre de grandeur | affinité pour le récepteur ([1]; result in words): la plus haute affinité pour le récepteur; also recorded: affinité importante | compétition avec l'HSA gal iodiné pour le récepteur à asialoglycoprotéine [1, 5]: induit une diminution de la radioactivité associée aux cellules | matériel radioactif associé au sang ou au plasma [2]: ≤ 10 % de la dose initiale administrée | radioactivité associée aux autres organes (rate, coeur, poumons, muscles, estomac, duodenum, colon, rectum) [2]: < 5% | sites de haute affinité (récepteur d'Ashwell): 56370 sites | sites de plus faible affinité (récepteur d'Ashwell): 490500 sites | quantité accumulée par les hépatocytes ([3]; 5 min after injection): > 40 % de la quantité administrée | quantité interagissant avec les autres organes ([3]; 5 min after injection): < 2% | rapport des concentrations spécifiques du foie et des reins ([3]; after 10 min): 10 | molécules captées par le foie par rapport à l'ASH gal ([3]; comparable number of molecules, after 5 min): ~2 fois | disparition sanguine ([3]; result in words): éliminée très rapidement de la circulation sanguine | rapport des concentrations spécifiques du foie et des reins ([3]; start value): 1.5
